Calls of active or inactive are those of the source.
Columns and labels:
CHO-K1 = test: (§1) Counterscreen for antagonists of the orexin 1 receptor (OX1R; HCRTR1): Homogeneous time resolved fluorescence (HTRF)-based cell-based dose response assay to identify antagonists of the parental CHO-K1 cell line. [Related pubchem assays (depositor defined):AID434989, AID435008, AID463079, AID485270, AID492963, AID492964, AID492965, AID493232, AID504699, AID504701]; format: functional; details: Cricetulus griseus
[1] = as §1, with “Fluorescence-based” for “Homogeneous time resolved fluorescence (HTRF)-based”, “cell-based high throughput” for “cell-based”, “CHO” for “CHO-K1”; format: functional
[2] = target: Neurotensin receptor type 1 (Homo sapiens, UniProt P30989); format: functional;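 note: Image-based confirmatory dose-response assay measuring agonist activity at NTR1; NTR1-expressing U2OS osteosarcoma cells imaged for beta-arrestin GFP spot formation; agonist potency where compounds increase beta-arrestin recruitment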
[3] = target: T1, Orexin/Hypocretin receptor type 1 (Homo sapiens, UniProt O43613); test: Homogeneous Time Resolved Fluorescence (HTRF)-based cell-based high throughput dose response assay for antagonists of the orexin 1 receptor (OX1R; HCRTR1). [Related pubchem assays (depositor defined):AID434989, AID435008, AID463079, AID485270, AID492963, AID492964, AID492965, AID493232, AID504717, AID504718]; format: functional
[4] = target: T1, Orexin/Hypocretin receptor type 1; test: Fluorescence-based cell-based high throughput dose response assay for antagonists of the orexin 1 receptor (OX1R; HCRTR1). [Related pubchem assays (depositor defined):AID434989, AID435008, AID463079, AID485270, AID492963, AID492964, AID492965, AID493232, AID504717, AID504718]; format: functional
[5] = target: T2, Microphthalmia-associated transcription factor (Homo sapiens, UniProt O75030); test: TRPM1 promoter luciferase signal decrease, dose response, MITF inhibitor project, cell-based, SK-MEL-5, cherry-picked, set 3 (AID 493073); format: functional
T2 sequence (O75030 whole entry): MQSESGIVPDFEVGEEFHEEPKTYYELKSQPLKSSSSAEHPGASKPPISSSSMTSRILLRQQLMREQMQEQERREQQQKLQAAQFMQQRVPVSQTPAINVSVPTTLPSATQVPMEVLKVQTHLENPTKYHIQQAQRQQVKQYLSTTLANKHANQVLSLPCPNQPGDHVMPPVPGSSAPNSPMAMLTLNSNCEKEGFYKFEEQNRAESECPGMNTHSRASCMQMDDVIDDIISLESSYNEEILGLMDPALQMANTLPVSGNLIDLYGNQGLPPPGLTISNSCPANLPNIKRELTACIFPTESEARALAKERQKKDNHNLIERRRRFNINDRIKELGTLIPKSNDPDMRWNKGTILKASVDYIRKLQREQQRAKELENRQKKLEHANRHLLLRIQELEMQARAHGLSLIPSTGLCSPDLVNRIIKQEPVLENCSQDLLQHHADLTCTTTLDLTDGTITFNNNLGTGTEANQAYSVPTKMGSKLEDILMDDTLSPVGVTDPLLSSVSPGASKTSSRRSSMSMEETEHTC

Orexin receptor type 2 [6] = target: T3, Orexin receptor type 2 (Homo sapiens, UniProt O43614); test: Counterscreen assay for antagonists of the orexin 1 receptor (OX1R; HCRTR1): Fluorescence-based cell-based dose response assay for antagonists of the orexin 2 receptor (OX2R; HCRTR2), run by assay provider.; format: functional
Orexin receptor type 2 [7] = target: T3, Orexin receptor type 2; test: Counterscreen assay for antagonists of the orexin 1 receptor (OX1R; HCRTR1): Homogeneous Time Resolved Fluorescence (HTRF)-based cell-based dose response assay for antagonists of the orexin 2 receptor (OX2R; HCRTR2), run by assay provider.; format: functional
[8] = A549 cell cytotoxicity, dose response, cytotoxicity control, plate reader, cherry-pick, antagonist series (AID 743412); format: functional, cell-based
[9] = HepG2 cell cytotoxicity, dose response, cytotoxicity control, plate reader, cherry-pick, antagonist series (AID 743416); format: functional, cell-based
[10] = LGR2 antagonists, dose response, cell-based, HEK293, CRE-luciferase reporter, cherry pick, set 2 (AID 743343); format: functional;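 note: transfected cells were stimulated with diluted bursicon conditioned medium after compound addition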
[11] = MC4R antagonists, dose response, counter-screen for LGR2 antagonist project, cell-based, plate reader, cherry pick (AID 743444); format: functional;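 note: transfected HEK 293 cells stimulated with alpha-MSH peptide; potency of inhibitors of the alpha-MSH evoked signal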
[12] = HEK293 cell cytotoxicity, dose response, cytotoxicity control, plate reader, cherry-picked samples (AID 743446); format: functional, cell-based
[13] = target: Protein disulfide-isomerase (Homo sapiens, UniProt P07237); test: PDI inhibitors, insulin aggregation turbidity, dose response, biochemical, absorbance, cherry-picked samples (AID 602350); format: functional
[14] = inhibitors of firefly luciferase expression or activity, dose response, H4 neuroglioma cells, luminescence (AID 1990); format: functional, cell-based
[15] = test system: Streptococcus sp. 'group A'; test: growth inhibition of control SK(-) GAS strain, dose response, counter-screen for streptokinase expression inhibitor project, luminescence, kanamycin, BacTiterGlo, confirmation (AID 1900); format: functional, organism-based
[16] = Luminescence Cell-Based Dose Response HTS to Identify Inhibitors of 5'UTR Stem-Loop Driven Prion Protein mRNA Translation in H4 Neuroglioblastoma Cells. [Related pubchem assays: 1827 (Project Summary), 1813 (Primary HTS)]; format: functional
[17] = inhibitors of SNCA 5'UTR-driven reporter translation, confirmation, H4 neuroglioma cells, luminescence (AID 1988); format: functional, cell-based
[18] = inhibitors of intracellular T. cruzi replication, confirmation, NIH3T3 host cells, beta-gal luminescence (AID 2044); format: functional, cell-based;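 note: intracellular parasites grown in NIH/3T3 mouse fibroblasts as host cells; luminescent beta-galactosidase reporter signal from transgenic T. cruzi replicating inside host cells; inhibitors lower the luminescence signal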
[19] = microbe, parasite or virus in culture; format: functional; details: Mycobacterium tuberculosis
[20] = cytotoxicity toward NIH3T3 fibroblasts, dose response, counter-screen, cell-based, ATP luminescence, mouse fibroblasts (AID 2010); format: functional;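 note: cells exposed to compound for about 90 hours before reading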
Streptococcus = test: Group A Streptococcus viability loss, dose response, counter-screen for streptokinase expression inhibitor project, luminescence, BacTiterGlo (AID 1915); format: functional, organism-based;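 note: potency for reduction of bacterial viability or growth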
[21] = Luminescence Cell-Based Dose Retest to Confirm Inhibitors of Cancer Stem Cells. [Related pubchem assays (depositor defined):AID2717, AID2721]; format: functional; details: Homo sapiens
HEK293 = test: inhibitors of LMP1-driven NF-kB reporter, dose response, cell-based, HEK293, luciferase, cherry-pick (AID 588343); format: functional; details: Homo sapiens
[22] = target: Latent membrane protein 1 (Human herpesvirus 4 (strain B95-8), UniProt P03230); test: TES1-eGFP NF-kB reporter inhibition versus Tet-On dsRED, dose response, selectivity assay for LMP1 NF-kB inhibitor project, imaging, HEK293T, dual-color eGFP/dsRED, cherry-picks (AID 588398); format: functional, cell-based
INS1 = test: beta cell apoptosis inhibitors, cytokine rescue, dose response, luminescence, retest (AID 449756); format: functional, cell-based; details: Rattus norvegicus;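 note: cell death triggered by IL-1 beta plus TNF-alpha plus IFN-gamma mixture; protective hits raise ATP signal compared with cytokine alone wells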
[23] = Shn3 3'UTR reporter inhibitors, dose response, cell-based, Clone20 osteoblasts, firefly luciferase, cherry-picked (AID 624132); format: functional;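 note: firefly luciferase luminescence from reporter carrying the Shn3 3'UTR in osteoblasts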
[24] = HepG2 cell cytotoxicity, dose response, cytotoxicity control for Shn3 inhibitor project, CellTiter-Glo, cherry-picked (AID 624134); format: functional, cell-based
[25] = control 3'UTR Renilla luciferase suppression, dose response, counter-screen for Shn3 inhibitor project, cell-based, Clone20-Shn3RL, cherry-picked (AID 624133); format: functional
[26] = target: Sphingosine 1-phosphate receptor 1 (Homo sapiens, UniProt P21453); test: Late-stage fluorescence-based dose-response cell-based counterscreen assay to identify agonists of the Sphingosine 1-Phosphate Receptor 4 (S1P4): Sphingosine 1-Phosphate Receptor 1 (S1P1) agonist assay Set 2.; format: functional
[27] = target: Sphingosine 1-phosphate receptor 5 (Homo sapiens, UniProt Q9H228); test: S1P5 receptor agonists, human, late-stage follow-up, counter-screen for S1P4 agonist project, cell-based, fluorescence, set 2 (AID 504867); format: functional
[28] = target: Sphingosine 1-phosphate receptor 3 (Homo sapiens, UniProt Q99500); test: Late-stage fluorescence-based dose-response cell-based counterscreen assay to identify agonists of the Sphingosine 1-Phosphate Receptor 4 (S1P4): Sphingosine 1-Phosphate Receptor 3 (S1P3) agonist assay Set 2.; format: functional
[29] = target: Sphingosine 1-phosphate receptor 2 (Homo sapiens, UniProt O95136); test: S1P2 receptor agonists, human, late-stage follow-up, counter-screen for S1P4 agonist project, cell-based, fluorescence, set 2 (AID 504873); format: functional
[30] = target: ALK tyrosine kinase receptor (Homo sapiens, UniProt Q9UM73); format: functional;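 note: ALK tested as one member of a kinase panel screen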
[31] = target: Serine/threonine-protein kinase D3 (Homo sapiens, UniProt O94806); format: functional;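 note: determined within a kinase panel screen, with PRKCN as the panel member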
[32] = target: Tyrosine-protein kinase Lck (Homo sapiens, UniProt P06239); format: functional;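 note: lck was assayed as one member of a kinase panel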
[33] = target: Death-associated protein kinase 3 (Homo sapiens, UniProt O43293); format: functional;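 note: measured as one member of a kinome-wide profiling panel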
Activin receptor type-1 = Activin receptor type-1 (Homo sapiens, UniProt Q04771); test: Navigating the Kinome. Panel member name: ACVR1; format: functional
[34] = target: Mitogen-activated protein kinase 8 (Homo sapiens, UniProt P45983); format: functional;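 note: value comes from one member of a kinome-wide kinase profiling panel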
[35] = target: Serine/threonine-protein kinase pim-1 (Homo sapiens, UniProt P11309); format: functional
[36] = target: Tyrosine-protein kinase BTK (Homo sapiens, UniProt Q06187); format: functional
[37] = target: Serine/threonine-protein kinase PAK 4 (Homo sapiens, UniProt O96013); format: functional;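 note: value obtained within a kinome profiling panel in which PAK4 was one of the panel members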
[38] = target: Fibroblast growth factor receptor 1 (Homo sapiens, UniProt P11362); format: functional
[39] = target: Casein kinase I isoform alpha (Homo sapiens, UniProt P48729); format: functional
[40] = target: Tyrosine-protein kinase JAK3 (Homo sapiens, UniProt P52333); format: functional
[41] = target: Serine/threonine-protein kinase N2 (Homo sapiens, UniProt Q16513); format: functional
[42] = target: Serine/threonine-protein kinase TAO1 (Homo sapiens, UniProt Q7L7X3); format: functional
[43] = target: Glycogen synthase kinase-3 alpha (Homo sapiens, UniProt P49840); format: functional;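 note: GSK3A result taken from a broad kinome-wide kinase panel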
[44] = target: Tyrosine-protein kinase ABL1 (Homo sapiens, UniProt P00519); format: functional
[45] = target: G protein-coupled receptor kinase 5 (Homo sapiens, UniProt P34947); test: Navigating the Kinome. Panel member name: GPRK5; format: functional
Focal adhesion kinase 1 = Focal adhesion kinase 1 (Homo sapiens, UniProt Q05397); format: functional;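 note: measured as one member of a kinome panel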
[46] = target: Tyrosine-protein kinase Fyn (Homo sapiens, UniProt P06241); format: functional
[47] = target: Cyclin-dependent kinase 8 (Homo sapiens, UniProt P49336); test: Navigating the Kinome. Panel member name: CDK8; format: functional
[48] = target: Mitogen-activated protein kinase kinase kinase kinase 4 (Homo sapiens, UniProt O95819); format: functional
[49] = target: Calcium/calmodulin-dependent protein kinase type II subunit alpha (Homo sapiens, UniProt Q9UQM7); test: Navigating the Kinome. Panel member name: CAMK2A; format: functional

T1 sequence (O43613 whole entry): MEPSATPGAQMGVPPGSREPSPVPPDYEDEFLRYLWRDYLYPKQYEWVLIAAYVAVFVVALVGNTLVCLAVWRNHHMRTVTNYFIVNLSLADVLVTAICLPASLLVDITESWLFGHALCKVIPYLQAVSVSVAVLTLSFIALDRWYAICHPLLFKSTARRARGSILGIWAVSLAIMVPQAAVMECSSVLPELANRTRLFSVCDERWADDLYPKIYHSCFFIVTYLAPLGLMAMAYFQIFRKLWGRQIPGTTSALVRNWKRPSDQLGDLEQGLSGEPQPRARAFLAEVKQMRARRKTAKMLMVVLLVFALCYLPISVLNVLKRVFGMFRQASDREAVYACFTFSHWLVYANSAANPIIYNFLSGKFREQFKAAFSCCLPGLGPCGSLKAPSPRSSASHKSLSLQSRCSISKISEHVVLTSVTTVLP
T3 sequence (O43614 whole entry): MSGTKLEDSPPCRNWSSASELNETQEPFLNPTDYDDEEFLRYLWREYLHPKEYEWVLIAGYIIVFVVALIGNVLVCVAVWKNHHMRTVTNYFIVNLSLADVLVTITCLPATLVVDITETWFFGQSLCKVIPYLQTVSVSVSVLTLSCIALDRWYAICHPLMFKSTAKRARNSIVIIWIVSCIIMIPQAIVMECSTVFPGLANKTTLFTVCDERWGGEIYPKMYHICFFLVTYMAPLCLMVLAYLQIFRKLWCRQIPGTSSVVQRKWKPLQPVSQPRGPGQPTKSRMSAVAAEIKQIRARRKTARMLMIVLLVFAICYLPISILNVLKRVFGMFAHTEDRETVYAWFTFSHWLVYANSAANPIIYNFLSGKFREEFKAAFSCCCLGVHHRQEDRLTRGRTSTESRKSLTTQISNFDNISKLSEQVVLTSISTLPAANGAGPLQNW
Chain of G protein-coupled receptor kinase 5 (P34947 whole entry): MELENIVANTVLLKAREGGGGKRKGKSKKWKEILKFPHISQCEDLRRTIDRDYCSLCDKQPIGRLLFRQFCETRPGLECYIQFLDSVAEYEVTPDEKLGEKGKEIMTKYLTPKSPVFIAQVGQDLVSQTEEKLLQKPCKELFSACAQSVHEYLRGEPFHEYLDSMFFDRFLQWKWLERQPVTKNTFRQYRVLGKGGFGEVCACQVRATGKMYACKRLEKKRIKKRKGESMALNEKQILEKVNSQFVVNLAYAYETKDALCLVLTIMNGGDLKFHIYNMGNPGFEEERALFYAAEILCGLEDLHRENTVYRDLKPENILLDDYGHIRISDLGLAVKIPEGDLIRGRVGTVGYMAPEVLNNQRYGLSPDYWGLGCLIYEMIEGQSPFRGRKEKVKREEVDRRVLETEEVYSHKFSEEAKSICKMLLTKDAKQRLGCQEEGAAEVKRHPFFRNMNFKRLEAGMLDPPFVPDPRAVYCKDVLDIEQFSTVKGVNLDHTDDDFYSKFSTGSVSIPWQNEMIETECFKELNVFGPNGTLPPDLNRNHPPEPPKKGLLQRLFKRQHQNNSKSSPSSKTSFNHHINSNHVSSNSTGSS
Chain of Sphingosine 1-phosphate receptor 5 (Q9H228 whole entry): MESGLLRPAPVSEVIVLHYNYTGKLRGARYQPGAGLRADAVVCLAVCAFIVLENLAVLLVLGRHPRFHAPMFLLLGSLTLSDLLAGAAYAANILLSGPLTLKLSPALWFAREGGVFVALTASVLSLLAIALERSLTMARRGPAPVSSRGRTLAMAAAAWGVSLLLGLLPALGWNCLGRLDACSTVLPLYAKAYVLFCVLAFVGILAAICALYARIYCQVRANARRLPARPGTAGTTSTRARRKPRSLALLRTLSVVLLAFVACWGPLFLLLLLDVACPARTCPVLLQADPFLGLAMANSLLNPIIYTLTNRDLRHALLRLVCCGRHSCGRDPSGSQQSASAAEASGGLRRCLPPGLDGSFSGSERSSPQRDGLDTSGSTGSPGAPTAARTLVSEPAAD
Chain of Activin receptor type-1 (Q04771 whole entry): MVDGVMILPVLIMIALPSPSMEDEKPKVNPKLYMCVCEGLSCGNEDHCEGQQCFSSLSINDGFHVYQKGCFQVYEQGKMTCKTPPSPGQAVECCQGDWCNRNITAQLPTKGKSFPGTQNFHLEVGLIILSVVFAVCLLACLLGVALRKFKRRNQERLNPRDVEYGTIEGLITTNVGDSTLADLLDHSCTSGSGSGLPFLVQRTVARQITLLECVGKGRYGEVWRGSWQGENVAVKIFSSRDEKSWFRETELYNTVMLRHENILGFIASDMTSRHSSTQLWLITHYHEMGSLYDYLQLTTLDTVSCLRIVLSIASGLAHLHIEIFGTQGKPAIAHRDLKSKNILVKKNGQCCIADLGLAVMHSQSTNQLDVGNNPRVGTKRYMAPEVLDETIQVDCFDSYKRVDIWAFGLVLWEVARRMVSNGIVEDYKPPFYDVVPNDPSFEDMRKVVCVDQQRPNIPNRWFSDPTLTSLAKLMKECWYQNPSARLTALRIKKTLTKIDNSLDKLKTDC
Chain of Neurotensin receptor type 1 (P30989 whole entry): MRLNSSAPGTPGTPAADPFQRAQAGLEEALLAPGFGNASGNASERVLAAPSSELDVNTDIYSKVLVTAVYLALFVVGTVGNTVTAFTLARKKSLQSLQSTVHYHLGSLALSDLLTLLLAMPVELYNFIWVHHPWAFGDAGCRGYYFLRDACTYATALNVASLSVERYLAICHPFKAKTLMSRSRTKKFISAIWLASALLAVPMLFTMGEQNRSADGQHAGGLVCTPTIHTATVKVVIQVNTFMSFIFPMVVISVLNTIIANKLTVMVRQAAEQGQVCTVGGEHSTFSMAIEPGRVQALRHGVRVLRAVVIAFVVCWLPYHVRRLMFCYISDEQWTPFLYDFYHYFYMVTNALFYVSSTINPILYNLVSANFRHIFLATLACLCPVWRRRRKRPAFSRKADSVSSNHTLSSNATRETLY
Chain of Fibroblast growth factor receptor 1 (P11362 whole entry, canonical isoform): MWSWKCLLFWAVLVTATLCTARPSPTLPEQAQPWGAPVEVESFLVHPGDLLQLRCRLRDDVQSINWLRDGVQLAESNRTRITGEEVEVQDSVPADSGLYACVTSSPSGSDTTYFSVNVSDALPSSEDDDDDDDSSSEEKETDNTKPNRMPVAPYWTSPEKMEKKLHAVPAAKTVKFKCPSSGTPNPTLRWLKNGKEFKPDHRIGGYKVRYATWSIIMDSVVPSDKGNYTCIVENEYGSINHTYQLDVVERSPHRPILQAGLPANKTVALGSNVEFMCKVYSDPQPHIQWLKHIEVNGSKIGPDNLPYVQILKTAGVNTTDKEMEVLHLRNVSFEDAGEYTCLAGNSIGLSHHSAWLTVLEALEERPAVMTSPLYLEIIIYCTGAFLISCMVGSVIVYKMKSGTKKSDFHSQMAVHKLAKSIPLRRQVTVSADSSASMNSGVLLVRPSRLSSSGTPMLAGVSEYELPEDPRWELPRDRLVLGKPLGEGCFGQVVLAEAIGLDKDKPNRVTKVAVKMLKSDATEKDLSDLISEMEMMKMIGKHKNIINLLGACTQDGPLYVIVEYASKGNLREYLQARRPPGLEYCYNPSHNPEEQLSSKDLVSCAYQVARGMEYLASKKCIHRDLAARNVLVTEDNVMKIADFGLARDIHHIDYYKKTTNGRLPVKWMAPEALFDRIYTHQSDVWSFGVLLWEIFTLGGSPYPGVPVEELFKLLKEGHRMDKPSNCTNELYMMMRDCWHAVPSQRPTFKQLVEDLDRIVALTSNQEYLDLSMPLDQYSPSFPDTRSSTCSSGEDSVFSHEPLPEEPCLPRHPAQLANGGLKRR
Chain of Casein kinase I isoform alpha (P48729 whole entry, canonical isoform): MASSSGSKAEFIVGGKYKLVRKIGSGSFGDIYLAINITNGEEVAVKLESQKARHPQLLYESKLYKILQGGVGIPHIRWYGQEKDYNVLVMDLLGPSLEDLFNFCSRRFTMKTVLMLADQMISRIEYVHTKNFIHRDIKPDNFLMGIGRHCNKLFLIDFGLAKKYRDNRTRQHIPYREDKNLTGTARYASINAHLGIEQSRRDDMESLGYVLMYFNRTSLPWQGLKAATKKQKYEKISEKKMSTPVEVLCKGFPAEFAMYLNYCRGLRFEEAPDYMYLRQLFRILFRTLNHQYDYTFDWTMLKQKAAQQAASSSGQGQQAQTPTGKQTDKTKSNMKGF
Chain of Focal adhesion kinase 1 (Q05397 whole entry): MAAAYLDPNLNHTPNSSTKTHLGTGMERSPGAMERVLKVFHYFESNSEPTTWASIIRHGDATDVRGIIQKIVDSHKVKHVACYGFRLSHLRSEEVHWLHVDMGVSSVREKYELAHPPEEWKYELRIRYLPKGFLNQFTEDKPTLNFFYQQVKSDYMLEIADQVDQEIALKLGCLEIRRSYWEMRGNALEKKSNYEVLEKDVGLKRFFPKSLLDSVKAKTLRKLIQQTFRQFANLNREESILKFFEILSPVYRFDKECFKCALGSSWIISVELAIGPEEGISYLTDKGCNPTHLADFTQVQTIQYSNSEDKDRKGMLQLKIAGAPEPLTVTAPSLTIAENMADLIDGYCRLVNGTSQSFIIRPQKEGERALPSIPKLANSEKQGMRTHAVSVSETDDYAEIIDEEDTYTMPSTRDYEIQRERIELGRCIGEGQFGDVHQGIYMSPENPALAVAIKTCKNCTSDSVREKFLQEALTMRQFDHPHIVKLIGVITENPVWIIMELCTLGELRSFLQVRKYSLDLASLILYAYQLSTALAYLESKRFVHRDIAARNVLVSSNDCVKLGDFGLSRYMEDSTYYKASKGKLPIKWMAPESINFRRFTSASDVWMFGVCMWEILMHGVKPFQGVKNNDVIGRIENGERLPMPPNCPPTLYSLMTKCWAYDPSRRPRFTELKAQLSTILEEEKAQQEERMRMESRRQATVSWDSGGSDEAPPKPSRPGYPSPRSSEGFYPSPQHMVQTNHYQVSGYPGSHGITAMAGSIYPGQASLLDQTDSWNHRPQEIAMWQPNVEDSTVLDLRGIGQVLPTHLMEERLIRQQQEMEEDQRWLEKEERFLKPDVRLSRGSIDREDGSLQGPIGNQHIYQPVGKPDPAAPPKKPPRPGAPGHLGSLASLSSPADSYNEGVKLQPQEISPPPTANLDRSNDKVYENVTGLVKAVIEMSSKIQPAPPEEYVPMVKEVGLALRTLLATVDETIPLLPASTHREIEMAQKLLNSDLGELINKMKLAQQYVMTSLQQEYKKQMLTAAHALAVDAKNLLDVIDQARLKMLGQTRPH

CN(C)S(=O)(=O)c1ccc(-c2csc(N/N=C/c3ccco3)n2)cc1
IC50 (CHO-K1): > 66.2 µM (inactive) | IC50 [1]: > 49.8 µM (inactive) | EC50 [2]: 8.51 µM (active) | IC50 [3]: 7.29 µM (active) | IC50 [4]: > 49.8 µM (inactive) | AC50 [5]: 3.9 µM (active) | IC50 (Orexin receptor type 2 [6]): > 88.8 µM (inactive) | IC50 (Orexin receptor type 2 [7]): > 50 µM (inactive) | AC50 [8]: 40.7 µM (active) | AC50 [9]: 5.32 µM (active) | AC50 [10]: 7.23 µM (active) | AC50 [11]: 7.48 µM (active) | AC50 [12]: 11 µM (active)

O=C(CCC1CCCCC1)NCCN1C2=NC[C@H](Cc3ccc(O)cc3)N2C[C@H]1Cc1ccc(O)cc1
AC50 [13]: 19.5 µM (active)

CCOC(=O)c1cnc(-n2nc(C)cc2C)nc1NNc1cc(C)nc(-c2ccccc2)n1
EC50 [14]: 0.584 µM (active) | EC50 [15]: 0.344 µM (active) | EC50 [16]: 2.8 µM (active) | EC50 [17]: 6.73 µM (active) | EC50 [18]: 0.355 µM (active) | CC50 [19]: 7.39 µM (active) | EC50 [20]: 56.7 µM (active) | EC50 (Streptococcus): 1.02 µM (active) | AC50 [21]: 1.74 µM (active) | AC50 (HEK293): 3.4 µM (active) | AC50 [22]: 81.7 µM (active) | AC50 (INS1): 2.14 µM (active) | AC50 [23]: 3.31 µM (active) | AC50 [24]: 60 µM (active) | AC50 [25]: 2.29 µM (active)

C/N=C1/S/C(=C/c2cc(C)n(-c3ccc(Cl)cc3F)c2C)C(=O)N1C
EC50 [26]: 3.01 µM (active) | EC50 [27]: 0.0336 µM (active) | EC50 [28]: > 25 µM (inactive) | EC50 [29]: > 25 µM (inactive)

Cc1cc(=O)[nH]c2[nH]nc(-c3cccc(C(F)(F)F)c3)c12
Ki [30]: > 6.31 µM (inactive) | Ki [31]: > 3.98 µM (inactive) | Ki [32]: > 6.31 µM (inactive) | Ki [33]: > 5.01 µM (inactive) | Ki (Activin receptor type-1): > 3.98 µM (inactive) | Ki [34]: > 5.01 µM (inactive) | Ki [35]: > 6.31 µM (inactive) | Ki [36]: > 6.31 µM (inactive) | Ki [37]: > 5.01 µM (inactive) | Ki [38]: > 3.98 µM (inactive) | Ki [39]: > 3.98 µM (inactive) | Ki [40]: > 5.01 µM (inactive) | Ki [41]: > 5.01 µM (inactive) | Ki [42]: > 6.31 µM (inactive) | Ki [43]: > 3.98 µM (inactive) | Ki [44]: > 3.98 µM (inactive) | Ki [45]: > 3.98 µM (inactive) | Ki (Focal adhesion kinase 1): > 6.31 µM (inactive) | Ki [46]: > 6.31 µM (inactive) | Ki [47]: > 3.98 µM (inactive) | Ki [48]: > 5.01 µM (inactive) | Ki [49]: > 7.94 µM (inactive)

— ChEMBL document CHEMBL1201862, “PubChem BioAssay data set” (2004)
